These results are taken from patent US20240262848A1, “HETEROCYCLIC COMPOUNDS, COMPOSITIONS THEREOF, AND METHODS OF TREATMENT THEREWITH” (BeiGene, Ltd., priority 2022, published 2024).

Experiment [1] concerns the target GST-tagged GDP-loaded KRAS G12D (amin acids 1-188) (Homo sapiens, UniProt P01116, G12D). The experiment is described as follows: KRAS G12D probe displacement assay (TR-FRET). The settings on record: Table 5; KRAS G12D 0.5 nM, biotinylated probe 2 4 nM. Format: binding. As for the experimental part:
Plates are incubated at 24° C. for 1 hr.
On the technique in general: In TR-FRET formats the signal depends on donor and acceptor labels being close together.

Experiment [2] concerns the target GST-tagged GDP-loaded KRAS G12V (amino acids 1-169) (Homo sapiens, UniProt P01116, G12V). The experiment is described as follows: KRAS G12V probe displacement assay (TR-FRET). Format: binding. The note with it: Table 4; KRAS G12V 2 nM, biotinylated probe 2 2.5 nM. As for the experimental part:
Plates are incubated at 24 °C for 1 hr. […] After 1 hr incubation at 24° C.

Experiment [3] has as its system pERK1/2(THR202/TYR204) level in SW620 cell line. Briefly: KRAS G12V pERK assay in SW620 cells (HTRF). Format: cell-based. The method, boiled down:
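SW620 cells were treated for 2 h with a 10-point dilution series (final 0–10 μM) after overnight seeding. Lysates were then incubated overnight at room temperature with Eu3+-cryptate and acceptor anti-phospho-ERK1/2 antibodies, and HTRF was read at 655 nm. IC50 was fitted from percent inhibition versus log concentration.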

Experiment [4] deals with pERK1/2(THR202/TYR204) level in AsPC-1 cell line. The experiment is described as follows: KRAS G12D pERK assay in AsPC-1 cells (HTRF). Format: cell-based. As for the experimental part:
AsPC-1 cell line was used in this study. Cells were maintained in RPMI-1640 supplemented with 10% fetal bovine serum (Thermo Fisher), 50 units/ml, penicillin and streptomycin (Thermo Fisher) and kept at 37° C. in a humidified atmosphere of 5% CO2 in air. Cells were reinstated from frozen stocks that were laid down within 30 passages from the original cells purchased. 30000 cells per well were seeded into a 96-well plate and incubated overnight. Cells were treated with a 10-point dilution series. The final compound concentration is from 0 to 10 μM. After 2 h compound treatment, cells were lysed, and the pERK1/2(THR202/TYR204) level in the cell lysates was detected by HTRF kit (Cisbio). In brief, a total of 16 μL of cell lysate from each well of a 96-well plate was transferred to a 384-well white assay plate. Lysate from each well was incubated with 2 μL of Eu3+-cryptate (donor) labeled anti-phospho-ERK1/2 and 2 μL of D2 (acceptor) labeled anti-phospho-ERK1/2 antibodies (Cisbio) overnight in dark at room temperature. When the donor and acceptor are in close proximity, excitation of the donor with laser triggers a Fluorescence Resonance Energy Transfer (FRET) towards the acceptor, which in turn fluoresces at 655 nm wavelength. FRET signals were measured using a PHERAstar FSX reader (BMG Labtech). IC50 determination was performed by fitting the curve of percent inhibition versus the log of the inhibitor concentration using Dotmatics.

The mark [5] stands for this setting: Homo sapiens, SW-620, Table 4, 2 hrs compound treatment.
The mark [6] stands for this setting: Homo sapiens, ASPC1, Table 5, 2 h compound treatment.

Chain of GST-tagged GDP-loaded KRAS G12D (amin acids 1-188) (P01116 1-188 isoform P01116-2 G12D): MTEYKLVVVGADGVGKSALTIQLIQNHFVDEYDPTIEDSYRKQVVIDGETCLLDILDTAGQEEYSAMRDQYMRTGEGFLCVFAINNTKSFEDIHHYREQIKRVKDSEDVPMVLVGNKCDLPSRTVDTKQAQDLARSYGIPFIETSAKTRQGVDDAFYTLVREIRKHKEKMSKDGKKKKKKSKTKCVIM
Chain of GST-tagged GDP-loaded KRAS G12V (amino acids 1-169) (P01116 1-169 isoform P01116-2 G12V): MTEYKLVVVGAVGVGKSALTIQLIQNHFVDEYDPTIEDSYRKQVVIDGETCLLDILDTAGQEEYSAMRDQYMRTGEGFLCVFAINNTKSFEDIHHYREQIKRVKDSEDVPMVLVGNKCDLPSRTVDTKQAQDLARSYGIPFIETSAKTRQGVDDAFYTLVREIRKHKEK

As for `CN1CCCOc2cc(-c3ccc(F)c4sc(N)c(C#N)c34)c(F)c3nc(OC[C@@]45CCCN4C[C@H](F)C5)nc1c23` [Example 2, 2-amino-7-fluoro-4-(11-fluoro-2-(((2R,7aS)-2-fluorotetrahydro-1H-pyrrolizin-7a(5H)-yl)methoxy)-4-methyl-4.5,6,7-tetrahydro-[1,5]oxazocino[4,3,2-de]quinazolin-10-yl)benzo[b]thiophene-3-carbonitrile], the IC50 – broadly, the concentration that inhibits the measured activity by half – was found to be 6.2 nM in experiment [1], 3.6 nM in experiment [2], 255 nM in experiment [3] (setting [5]) and 594 nM in experiment [4] (setting [6]).
The corresponding values for `CCN1c2nc(OC[C@@]34CCCN3C[C@H](F)C4)nc3c(F)c(-c4cc(N)cc(Cl)c4C(F)(F)F)nc(c23)OCCC12COC2` [Example 35, 3-chloro-5-(11-ethyl-4-fluoro-2-(((2R,7aS)-2-fluorotetrahydro-1H-pyrrolizin-7a(5H)-yl)methoxy)-8,9-dihydro-11H-7-oxa-1,3,6,11-tetraazaspiro[cycloocta[de]naphthalene-10,3′-oxetan]-1(11a), 2,3a, 3a^1(6a), 5-pentaen-5-yl)-4-(trifluoromethyl)aniline] are 0.33 nM, 0.47 nM, 26 nM and 22 nM.
The corresponding values for `C#Cc1c(F)ccc2cc(O)cc(-c3nc4c5c(nc(OC[C@@]67CCCN6C[C@H](F)C7)nc5c3F)N(C)CCCO4)c12` [Example 10, 5-ethynyl-6-fluoro-4-(4-fluoro-2-(((2R,7aS)-2-fluorotetrahydro-1H-pyrrolizin-7a(5H)-yl)methoxy)-11-methyl-8,9,10,11-tetrahydro-7-oxa-1,3,6,11-tetraazacycloocta[de]naphthalen-5-yl)naphthalen-2-ol] are 1.1 nM, 1.4 nM, 103 nM and 123 nM.
The corresponding values for `Cc1cc(N)cc(-c2nc3c4c(nc(OC[C@@]56CCCN5C[C@H](F)C6)nc4c2F)N(C)[C@@H]2COCC[C@H]2O3)c1C(F)(F)F` [Example 61, 3-((7aR,11aR)-4-fluoro-2-(((2R,7aS)-2-fluorotetrahydro-1H-pyrrolizin-7a(5H)-yl)methoxy)-12-methyl-7a, 8,11a, 12-tetrahydro-9H, 11H-7,10-dioxa-1,3,6,12-tetraazapleiaden-5-yl)-5-methyl-4-(trifluoromethyl)aniline] are 0.57 nM, 0.8 nM, 22 nM and 23 nM.
Consider `CN1c2nc(OC[C@@]34CCCN3C[C@H](F)C4)nc3c(F)c(-c4cc(N)cc(Cl)c4C(F)(F)F)nc(c23)OCCC12CC2` [Example 31, 3-chloro-5-(4-fluoro-2-(((2R,7aS)-2-fluorotetrahydro-1H-pyrrolizin-7a(5H)-yl)methoxy)-11-methyl-8,9-dihydro-11H-7-oxa-1,3,6,11-tetraazaspiro[cycloocta[de]naphthalene-10,1′-cyclopropan]-1(11a), 2,3a, 4,6-pentaen-5-yl)-4 (trifluoromethyl)aniline], for which the IC50 in experiment [1] amounted to 0.43 nM; in experiment [2], 0.51 nM; in experiment [3] (setting [5]) it was 32 nM; in experiment [4] (setting [6]) it was 40 nM.
The corresponding values for `CN1c2nc(OC[C@@]34CCCN3C[C@H](F)C4)nc3c(F)c(-c4cc(N)cc(Cl)c4C(F)(F)F)nc(c23)O[C@@H]2CCOC[C@H]21` [Example 51, 3-chloro-5-((7aR,11aR)-4-fluoro-2-(((2R,7aS)-2-fluorotetrahydro-1H-pyrrolizin-7a(5H)-yl)methoxy)-12-methyl-7a, 8,11a, 12-tetrahydro-9H, 11H-7,10-dioxa-1,3,6,12-tetraazapleiaden-5-yl)-4-(trifluoromethyl)aniline] are 0.28 nM, 0.5 nM, 9.3 nM and 30 nM.
The corresponding values for `C[C@@H]1C[C@H](C)Oc2nc(-c3cc(N)cc(Cl)c3C(F)(F)F)c(F)c3nc(OC[C@@]45CCCN4C[C@H](F)C5)nc(c23)N1C` [Example 34, 3-chloro-5-((8S,10R)-4-fluoro-2-(((2R,7aS)-2-fluorotetrahydro-1H-pyrrolizin-7a(5H)-yl)methoxy)-8,10,11-trimethyl-8,9,10,11-tetrahydro-7-oxa-1,3,6,11-tetraazacycloocta[de]naphthalen-5-yl)-4-(trifluoromethyl)aniline] are 0.59 nM, 0.59 nM, 13 nM and 25 nM.
For `Cc1cc(N)cc(-c2nc3c4c(nc(OC[C@]56CCC[C@H]5N(C)CCC6)nc4c2F)N(C)[C@H]2CCOC[C@@H]2O3)c1C(F)(F)F` [Example 65, 3-((7aR,11aS)-4-fluoro-12-methyl-2-(((4aS,7aR)-1-methyloctahydro-4aH-cyclopenta[b]pyridin-4a-yl)methoxy)-7a, 8,10,11,11a, 12-hexahydro-7,9-dioxa-1,3,6,12-tetraazapleiaden-5-yl)-5-methyl-4-(trifluoromethyl)aniline] the same measures were 0.27 nM, 0.47 nM, 8.9 nM and 17 nM.
As for `CN1c2nc(OC[C@@]34CCCN3C[C@H](F)C4)nc3c(F)c(-c4cc(N)cc(Cl)c4C(F)(F)F)nc(c23)OCCC12COC2` [Example 30, 3-chloro-5-(4-fluoro-2-(((2R,7aS)-2-fluorotetrahydro-1H-pyrrolizin-7a(5H)-yl)methoxy)-11-methyl-8,9-dihydro-11H-7-oxa-1,3,6,11-tetraazaspiro[cycloocta[de]naphthalene-10,3′-oxetan]-1(11a), 2,3a, 3a^1(6a), 5-pentaen-5-yl)-4-(trifluoromethyl)aniline], the IC50 in experiment [1] came to 0.31 nM; in experiment [2], 0.63 nM; in experiment [3] (Table 4, 2 hrs compound treatment), 13 nM; in experiment [4] (Table 5, 2 h compound treatment) it was 11 nM.
As to `CN1CCC[C@@]2(COc3nc4c5c(nc(-c6cc(N)cc(Cl)c6C(F)(F)F)c(F)c5n3)O[C@H]3COCC[C@@H]3N4C)CCC[C@@H]12` [Example 64, 3-chloro-5-((7aR,11aS)-4-fluoro-12-methyl-2-(((4aS,7aR)-1-methyloctahydro-4aH-cyclopenta[b]pyridin-4a-yl)methoxy)-7a, 8,10,11,11a, 12-hexahydro-7,9-dioxa-1,3,6,12-tetraazapleiaden-5-yl)-4-(trifluoromethyl)aniline], the IC50 in experiment [1] worked out at 0.1 nM; in experiment [2], 0.25 nM; in experiment [3] (setting [5]), 6.4 nM; in experiment [4] (setting [6]), 7.9 nM.
